According to ChEMBL document CHEMBL1148037, “Effect of Fungal Natural Products in an Agrobacterium tumefaciens Potato Disc Assay” (1994):
Active and inactive are the calls of the source. The rule behind the calls is not given here.

Tests used:
Escherichia coli = test: Antibacterial activity against Escherichia coli at 50 to 500 ug/disk by paper-disk-plate technique; format: functional, organism-based
[1] = tested on: Agrobacterium tumefaciens; test: Antitumor activity against Agrobacterium tumefaciens B6-induced crown-gall tumor formation in potato assessed as tumor induction at 5 ug/disk after 12 days at 27 degC by potato disk assay relative to control; format: functional
[2] = tested on: Agrobacterium tumefaciens; test: Antitumor activity against Agrobacterium tumefaciens B6-induced crown-gall tumor formation in potato assessed as tumor induction at 50 ug/disk after 12 days at 27 degC by potato disk assay relative to control; format: functional
[3] = tested on: Brochothrix thermosphacta; test: Antibacterial activity against Microbacterium thermosphactum at 50 to 500 ug/disk by paper-disk-plate technique; format: functional, organism-based
Bacillus subtilis = test: Antibacterial activity against Bacillus subtilis at 50 to 500 ug/disk by paper-disk-plate technique; format: functional, organism-based
Chaetomium = test: Antifungal activity against Chaetomium at 50 to 500 ug/disk by paper-disk-plate technique; format: functional, organism-based
Bacillus cereus = test: Antibacterial activity against Bacillus cereus at 50 to 500 ug/disk by paper-disk-plate technique; format: functional, organism-based
[4] = tested on: Agrobacterium tumefaciens; test: Antibacterial activity against Agrobacterium tumefaciens at 50 to 500 ug/disk by paper-disk-plate technique; format: functional, organism-based
Citrobacter freundii = test: Antibacterial activity against Citrobacter freundii at 50 to 500 ug/disk by paper-disk-plate technique; format: functional, organism-based
[5] = tested on: Agrobacterium tumefaciens; test: Antitumor activity against Agrobacterium tumefaciens B6-induced crown-gall tumor formation in potato assessed as tumor induction at 10 ug/disk after 12 days at 27 degC by potato disk assay relative to control; format: functional
Enterobacter cloacae = test: Antibacterial activity against Enterobacter cloacae at 50 to 500 ug/disk by paper-disk-plate technique; format: functional, organism-based
Curvularia lunata = test: Antifungal activity against Curvularia lunata at 50 to 500 ug/disk by paper-disk-plate technique; format: functional, organism-based
[6] = tested on: Agrobacterium tumefaciens; test: Antitumor activity against Agrobacterium tumefaciens B6-induced crown-gall tumor formation in potato assessed as tumor induction at 25 ug/disk after 12 days at 27 degC by potato disk assay relative to control; format: functional
Aspergillus flavus = test: Antifungal activity against Aspergillus flavus at 50 to 500 ug/disk by paper-disk-plate technique; format: functional, organism-based

CO[C@]12c3c(C)cc(O)c4c(=O)occ(c34)C(=O)[C@H]1[C@]13COC(=O)c4c(O)cc(C)c(c41)C(=O)[C@H]2[C@@H]3OC(C)=O
Activity (Escherichia coli): inactive
Activity [1]: -67%
Activity [2]: -94%
Activity [3]: inactive
Activity (Bacillus subtilis): inactive
Activity (Chaetomium): inactive
Activity (Bacillus cereus): inactive
Activity [4]: inactive
Activity (Citrobacter freundii): inactive
Activity [5]: -74%
Activity (Enterobacter cloacae): inactive
Activity (Curvularia lunata): inactive
Activity [6]: -95%
Activity (Aspergillus flavus): inactive

O=C(O)/C=C/CCCCCCCCC(=O)O [TRAUMATIC ACID]
Activity [6]: 28.4%

CC[C@@]1(O)C(=O)OCc2c1cc1n(c2=O)Cc2cc3ccccc3nc2-1 [CAMPTOTHECIN]
Activity [6]: -100%

CC1=C2C(=CO[C@H](C)[C@H]2C)C(O)=C(C(=O)O)C1=O [CITRININ]
Activity [6]: -26%

CC(=C\C(=O)O)/C=C(\C)C[C@H](C)CCCC[C@H]1OC(=O)[C@@H]1CO [ANTIBIOTIC 1233A]
Activity [6]: -39%

CC[C@@H]1CCc2occ(CO)c(=O)c2[C@H]1O [DIPLODIOL]
Activity (Escherichia coli): inactive
Activity [1]: -70%
Activity [2]: -75%
Activity [3]: inactive
Activity (Bacillus subtilis): inactive
Activity (Chaetomium): inactive
Activity (Bacillus cereus): inactive
Activity [4]: inactive
Activity (Citrobacter freundii): inactive
Activity [5]: -73%
Activity (Enterobacter cloacae): inactive
Activity (Curvularia lunata): inactive
Activity [6]: -96.3%
Activity (Aspergillus flavus): inactive

C[C@H]1CCC/C=C/[C@@H]2C[C@H](O)C[C@H]2[C@H](O)/C=C/C(=O)O1 [BREFELDIN A]
Activity [6]: -62%

C[C@H]1CCC[C@H](C[C@H]2Cc3cc(O)cc(O)c3C(=O)O2)O1 [CLADOSPORIN]
Activity [1]: -14%
Activity [2]: -90%
Activity [5]: -16%
Activity [6]: -79%

CC(C)=C1Oc2c(ccc3c2COC(C)(O)C3)C1=O (centres undefined) [PERGILLIN]
Activity [6]: -68.9%

CCCCCC[C@@H]1O[C@]23O[C@H]1CC[C@H]2[C@@H](O)CC[C@H]3O [KONINGININ A]
Activity [6]: 75%

CCCCCc1cccc(=O)o1
Activity [6]: -35.5%

O=C1C=C2C(=CCOC2O)O1 (centres undefined) [PATULIN]
Activity [6]: -66%

C[C@@H]1C[C@H]2O[C@@H]2/C=C\C=C\C(=O)Cc2c(Cl)c(O)cc(O)c2C(=O)O1 [RADICICOL]
Activity [1]: -76%
Activity [2]: -100%
Activity [5]: -94%
Activity [6]: -75%

C[C@@H]1C/C=C/CCCCC(=O)Cc2cc(O)cc(O)c2C(=O)O1 [MONOCILLIN IV]
Activity (Escherichia coli): inactive
Activity [1]: -8%
Activity [2]: -75%
Activity [3]: inactive
Activity (Bacillus subtilis): inactive
Activity (Chaetomium): inactive
Activity (Bacillus cereus): inactive
Activity [4]: inactive
Activity (Citrobacter freundii): inactive
Activity [5]: -63%
Activity (Enterobacter cloacae): inactive
Activity (Curvularia lunata): inactive
Activity [6]: -78%
Activity (Aspergillus flavus): inactive

CCCCCC[C@@H](O)[C@H]1CCC2=C(O1)[C@@H](O)CCC2=O [KONINGININ B]
Activity [6]: 1%

CC[C@H]1C2[C@H]([C@@H](C)c3c[nH]c4ccccc34)NC(=O)[C@@]23C(=O)/C=C\C(=O)[C@H](O)/C(C)=C\[C@@H](C)C/C=C/[C@H]3[C@@H]2O[C@]12C (some centres undefined) [CHAETOGLOBOSIN K]
Activity (Escherichia coli): inactive
Activity [1]: -74%
Activity [2]: -100%
Activity [3]: inactive
Activity (Bacillus subtilis): inactive
Activity (Chaetomium): inactive
Activity (Bacillus cereus): inactive
Activity [4]: inactive
Activity (Citrobacter freundii): inactive
Activity [5]: -97%
Activity (Enterobacter cloacae): inactive
Activity (Curvularia lunata): inactive
Activity [6]: -94%
Activity (Aspergillus flavus): inactive
